From patent US12583861B2, “Derivatives of imidazo[4,5-d]pyridazine, their preparation and their therapeutic application” (SANOFI, priority 2021, dated 2026)

Target: T1, human TLR7 (Homo sapiens, UniProt Q9NYK1)
T1 construct: host or cells: HEK293 (HEK-Blue hTLR7)
T1 sequence (Q9NYK1 27-1049): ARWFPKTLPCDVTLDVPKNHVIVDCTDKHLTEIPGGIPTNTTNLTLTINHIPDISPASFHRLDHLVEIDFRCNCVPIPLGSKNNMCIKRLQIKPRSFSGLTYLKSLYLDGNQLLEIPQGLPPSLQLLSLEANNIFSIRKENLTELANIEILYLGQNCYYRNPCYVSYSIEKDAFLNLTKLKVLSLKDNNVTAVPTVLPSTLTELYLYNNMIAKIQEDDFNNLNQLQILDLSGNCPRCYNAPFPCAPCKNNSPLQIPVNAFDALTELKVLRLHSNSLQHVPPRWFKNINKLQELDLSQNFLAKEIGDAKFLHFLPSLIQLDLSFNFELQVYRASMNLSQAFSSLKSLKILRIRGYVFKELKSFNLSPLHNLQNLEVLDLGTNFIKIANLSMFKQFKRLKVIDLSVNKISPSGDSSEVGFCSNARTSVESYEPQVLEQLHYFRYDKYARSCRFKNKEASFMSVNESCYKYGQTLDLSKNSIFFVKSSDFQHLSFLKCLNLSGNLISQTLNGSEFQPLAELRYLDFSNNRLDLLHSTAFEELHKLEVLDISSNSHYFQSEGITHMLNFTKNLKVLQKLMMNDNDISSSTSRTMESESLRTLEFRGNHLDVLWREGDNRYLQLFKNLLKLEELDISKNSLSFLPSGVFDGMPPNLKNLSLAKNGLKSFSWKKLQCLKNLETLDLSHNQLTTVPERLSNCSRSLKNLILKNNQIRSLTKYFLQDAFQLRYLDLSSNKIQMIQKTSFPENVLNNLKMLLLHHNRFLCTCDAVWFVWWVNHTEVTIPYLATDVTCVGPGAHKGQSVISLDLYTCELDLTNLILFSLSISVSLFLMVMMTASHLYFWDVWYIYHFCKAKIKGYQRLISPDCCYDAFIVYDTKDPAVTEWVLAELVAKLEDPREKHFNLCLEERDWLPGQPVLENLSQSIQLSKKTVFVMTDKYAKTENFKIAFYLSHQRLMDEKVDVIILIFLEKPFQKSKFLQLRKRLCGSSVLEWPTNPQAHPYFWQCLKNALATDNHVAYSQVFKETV
Experiment: HEK-Blue hTLR7 reporter cell assay (SEAP, NF-kB/AP-1) for stimulation of human TLR7
Format: cell-based
Conditions: HEK-Blue hTLR7 cells, 24 h incubation, SEAP readout; read-out: TLR7_EC50
Method in brief: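 HEK293 cells expressing hTLR7 with NF-κB/AP-1-driven SEAP reporter, seeded 3.10E4 cells/well, pre-incubated 18–24 h, then exposed to 3-fold compound dilutions (0.01–20 μM) for 24 h at 37 °C. Supernatant SEAP read with QUANTI-Blue; EC50 as concentration giving 50% activation.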

SMILES | EC50
CCCCc1nc2c(N)nnc(OC(C)C)c2n1Cc1cccc(CN)c1 [Compound 33, 1-(3-(aminomethyl)benzyl)-2-butyl-7-isopropoxy-1H-imidazo[4,5-d]pyridazin-4-amine 2,2,2-trifluoroacetate] | 392 nM
CCCCc1nc2c(N)nnc(N(C)C)c2n1Cc1ccc(OC)cc1 [Compound 71, 2-butyl-1-(4-methoxybenzyl)-N7,N7-dimethyl-1H-imidazo[4,5-d]pyridazine-4,7-diamine] | 291 nM
C=CCOc1nnc(N)c2nc(CCCC)n(Cc3ccc(OC)cc3)c12 [Compound 6, 7-(allyloxy)-2-butyl-1-(4-methoxybenzyl)-1H-imidazo[4,5-d]pyridazin-4-amine] | 295 nM
C=C(C)c1nnc(N)c2nc(CCCC)n(Cc3ccc(OC)cc3)c12 [Compound 17, 2-butyl-1-(4-methoxybenzyl)-7-(prop-1-en-2-yl)-1H-imidazo[4,5-d]pyridazin-4-amine] | 155 nM
CCCCc1nc2c(N)nnc(OC(C)C)c2n1Cc1ccc(CN)cc1 [Compound 21, 1-(4-(aminomethyl)benzyl)-2-butyl-7-isopropoxy-1H-imidazo[4,5-d]pyridazin-4-amine] | 33 nM
CCCCc1nc2c(N)nnc(OC(C)C)c2n1Cc1ccc(OC)cc1 [Compound 1, 2-butyl-7-isopropoxy-1-(4-methoxybenzyl)-1H-imidazo[4,5-d]pyridazin-4-amine] | 103 nM
CCCCc1nc2c(N)nnc(N(C)C)c2n1C [Compound 41, 2-butyl-N7,N7,1-trimethyl-1H-imidazo[4,5-d]pyridazine-4,7-diamine] | 3070 nM
CCCCc1nc2c(N)nnc(N3CCCC3)c2n1Cc1ccc(OC)cc1 [Compound 10, 2-butyl-1-(4-methoxybenzyl)-7-(pyrrolidin-1-yl)-1H-imidazo[4,5-d]pyridazin-4-amine] | 120 nM
CCCCc1nc2c(N)nnc(OCC)c2n1Cc1ccc(OC)cc1 [Compound 48, 2-butyl-7-ethoxy-1-(4-methoxybenzyl)-1H-imidazo[4,5-d]pyridazin-4-amine] | 160 nM
CCCCc1nc2c(N)nnc(NCCOC)c2n1Cc1ccc(OC)cc1 [Compound 49, 2-butyl-1-(4-methoxybenzyl)-N7-(2-methoxyethyl)-1H-imidazo[4,5-d]pyridazine-4,7-diamine] | 353 nM
CCCCc1nc2c(N)nnc(N3CCC(c4ccccc4)C3)c2n1C (stereo not shown) [Compound 89, 2-butyl-1-methyl-7-(3-phenylpyrrolidin-1-yl)-1H-imidazo[4,5-d]pyridazin-4-amine] | 1200 nM

More lines, in order of falling EC50, values ahead:

EC50 | SMILES
1260 nM | CCCCc1nc2c(N)nnc(OCCOC)c2n1Cc1ccc(OC)cc1 [Compound 4, 2-butyl-1-(4-methoxybenzyl)-7-(2-methoxyethoxy)-1H-imidazo[4,5-d]pyridazin-4-amine]
566 nM | CCCCc1nc2c(N)nnc(SC(C)C)c2n1Cc1ccc(OC)cc1 [Compound 3, 2-butyl-7-(isopropylthio)-1-(4-methoxybenzyl)-1H-imidazo[4,5-d]pyridazin-4-amine]
355 nM | CCCCc1nc2c(N)nnc(C(C)C)c2n1Cc1ccc(OC)cc1 [Compound 18, 2-butyl-7-isopropyl-1-(4-methoxybenzyl)-1H-imidazo[4,5-d]pyridazin-4-amine]
219 nM | CCCCc1nc2c(N)nnc(-c3cc[nH]c3)c2n1Cc1ccc(OC)cc1 [Compound 14, 2-butyl-1-(4-methoxybenzyl)-7-(1H-pyrrol-3-yl)-1H-imidazo[4,5-d]pyridazin-4-amine]
179 nM | CCCCc1nc2c(N)nnc(OC(C)C)c2n1Cc1ccccn1 [Compound 75, 2-butyl-7-isopropoxy-1-(pyridin-2-ylmethyl)-1H-imidazo[4,5-d]pyridazin-4-amine]
172 nM | CCCCc1nc2c(N)nnc(OC(C)C)c2n1C[C@H]1CCC[C@@H](N)C1 (racemic) [Compound 23, 1-(((1S,3R)-3-aminocyclohexyl)methyl)-2-butyl-7-isopropoxy-1H-imidazo[4,5-d]pyridazin-4-amine (and enantiomer)]
135 nM | CCCCc1nc2c(N)nnc(OC3CCCC3)c2n1Cc1ccc(OC)cc1 [Compound 9, 2-butyl-7-(cyclopentyloxy)-1-(4-methoxybenzyl)-1H-imidazo[4,5-d]pyridazin-4-amine]
116 nM | CCCCc1nc2c(N)nnc(OC(C)C)c2n1Cc1ccc(C=O)cc1 [Compound 34, 4-((4-amino-2-butyl-7-isopropoxy-1H-imidazo[4,5-d]pyridazin-1-yl)methyl)benzaldehyde]
106 nM | CCCCc1nc2c(N)nnc(OC(C)C)c2n1Cc1ccc(CO)cc1 [Compound 35, (4-((4-amino-2-butyl-7-isopropoxy-1H-imidazo[4,5-d]pyridazin-1-yl)methyl)phenyl)methanol]
53 nM | CCCCc1nc2c(N)nnc(NC(C)C)c2n1Cc1ccc(OC)cc1 [Compound 2, 2-butyl-N7-isopropyl-1-(4-methoxybenzyl)-1H-imidazo[4,5-d]pyridazin-4,7-diamine]
30 nM | CCCCc1nc2c(N)nnc(OC(C)C)c2n1Cc1ccc(CN)cc1 [Compound 22, 1-(4-(aminomethyl)benzyl)-2-butyl-7-isopropoxy-1H-imidazo[4,5-d]pyridazin-4-amine 2,2,2-trifluoroacetate]
